These results are taken from patent publication US5840911A, “Imidazole derivatives, their preparation and their use as S-adenosylmethionine decarboxylase (=SAMDC) inhibitors” (Novartis AG, priority 1995, dated 1998).

Structures can show the parent of a compound that is named as a salt. Where two headings read alike, the source gives them in different places.

Series [1] deals with T1, S-adenosylmethionine decarboxylase (SAMDC) (Rattus norvegicus, UniProt P17708).
T1 sequence (P17708 68-333 limits assumed): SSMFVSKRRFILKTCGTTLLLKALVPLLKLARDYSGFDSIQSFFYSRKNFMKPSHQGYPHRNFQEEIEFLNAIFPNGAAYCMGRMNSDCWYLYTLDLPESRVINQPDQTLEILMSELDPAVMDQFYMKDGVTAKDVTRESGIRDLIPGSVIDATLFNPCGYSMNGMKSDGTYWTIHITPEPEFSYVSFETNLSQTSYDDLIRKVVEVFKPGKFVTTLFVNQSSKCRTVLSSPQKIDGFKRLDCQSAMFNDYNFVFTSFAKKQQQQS
T1 sequence (P17708 1-67 limits assumed): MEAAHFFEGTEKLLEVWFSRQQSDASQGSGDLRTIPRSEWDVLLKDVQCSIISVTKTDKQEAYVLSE
Description: Inhibition of S-adenosylmethionine decarboxylase (SAMDC). The class given is biochemical. Particulars: read-out: IC50, inhibition of the enzyme SAMDC.

Series [2] has as its system human T24 bladder cell carcinomas. Briefly: Inhibition of the growth of T24 bladder carcinoma cells in vivo (nude mouse). Also noted: species or system human; BALB/c nude mice. The settings on record: for T/C on i.p. administration / T/C on p.o. administration: average for 6 animals. As for the experimental part: W. Porter (see Cancer Res. 54, 3210-3217 (1994)). Briefly, the procedure is as follows: To determine the maximum tolerable dose (MTD), the compounds according to the invention (for example dissolved in distilled water/0.9% NaCl) are injected i.p. into three mice per group. The dose is increased until the first animals die within a period of 10 days. To determine the anti-tumor activity, for example, small pieces of human T-24 bladder carcinoma cells (ATCC HTB 4) are cultured and transplanted as xenogenic transplants ("xenografts") into female BALB/c nude mice (Bomholtgarden, Copenhagen, Denmark). The anti-tumor treatment using compounds of formula I is started after at least three successive transplants. Tumor fragments weighing approximately 25 mg are transplanted into the left flank of the mouse (n=6 per group). Treatment is started as soon as the tumors have an average tumor volume of from 150 to 200 mm^3. The growth of the tumors is determined twice weekly by measuring mutually perpendicular tumor diameters. The tumor volumes are determined in the manner described by U. Regenass, H. Mett, J. Stanek, M. Muller, D. Kramer and C. W. Porter (see Cancer Res. 54 3210-3217 (1994)) and are given as relative tumor size (i.e. increase in tumor volume relative to the tumor volume at the beginning of treatment) in T/C % (percent treated/control). The test compounds are dissolved in distilled water and diluted with 3 volumes of 0.9% (w/v) NaCl in water.
Using the method mentioned hereinbefore (see also Regenass et al., Cancer Res. 54, 3210-3217 ([…])), the compound of Example 2 of the present Application is administered in accordance with the following treatment scheme to BALB/c nude mice with transplanted human T24 bladder cell carcinomas: The compound is administered p.o. (50, 25 and 12.5 mg/kg) or i.p. (12.5, 6.25 and 3.13 mg/kg). The compound is dissolved in distilled water and diluted with 3 volumes of 0.9% NaCl (w/v) in water.

Series [3] concerns human T24 bladder carcinoma cells. Briefly: Inhibition of the growth of human T24 bladder carcinoma cells. The settings on record: 120 h, 5 days incubation, concentration at half the maximum inhibition. The class given is cell-based. As for the experimental part:
The carcinoma cells (1000-1500; ATCC HB 4) are transferred to 96-well microtitre plates and are incubated overnight under the said conditions. The test compound is added in serial dilutions on day 1. The plates are incubated under the said conditions for 5 days. During that period, control cultures undergo at least 4 cell divisions. After the incubation, the cells are fixed with 3.3% (weight/volume=w/v) aqueous glutaraldehyde solution, washed with water and stained with 0.05% (w/v) aqueous methylene blue solution. After washing, the dye is eluted with 3% (w/v) aqueous hydrochloric acid. The optical density (OD) per well, which is directly proportional to the number of cells, is then measured by means of a photometer (Titertek multiskan) at 665 nm. The IC50 values are calculated by means of a computer system using the formula [formula] The IC50 value is defined as the concentration of active ingredient at which the number of cells per well at the end of the incubation period is only 50% of the number of cells in the control cultures. The inhibition of the growth of human T24 bladder carcinoma cells is measured using the method mentioned hereinbefore. The following IC50 values (concentration of the test compound at half the maximum inhibition) are determined using the following Examples: […]

Series [4] can be described thus: Maximum tolerable dose (MTD). Details: species or system mice. The settings on record: mouse, in vivo, read-out: maximum tolerated dose.

The term IC50 denotes the point on the concentration scale where inhibition reaches its midpoint. With `N=C(N)c1cccc2c1CCC2=Nn1cc(-c2ccccc2)nc1N` [Example 2, 1-[4-(Amidino)-2,3-dihydro-1H-inden-1: -ylideneamino]-2-amino-4-phenyl-imidazole dihydrochloride], the IC50 in series [1] is 2 nM; in series [3], 1160 nM. The “T/C on i.p. administration” value turned out to be 34% in series [2] (3.13 mg/kg), 22% in series [2] (6.25 mg/kg) and 16% in series [2] (12.5 mg/kg). Besides, the “growth of T24 bladder carcinoma cells in vivo (in words)” value in series [2] (oral and intraperitoneal administration) is “inhibits the growth of T24 bladder carcinoma cells”. Also, in series [2] (p.o. and i.p.), the “dose-dependence of tumor growth inhibition” value is given as “dose-dependence of the action is observed”. Besides, the “T/C on p.o. administration” value is 68% in series [2] (12.5 mg/kg), 47% in series [2] (25 mg/kg) and 31% in series [2] (50 mg/kg). Besides, the MTD at 240 h is 125 mg/kg in series [4] (ip) and over 500 mg/kg in series [4] (po).
In the case of `COc1ccc(-c2cn(N=C3CCc4c(C(=N)N)cccc43)c(N)n2)cc1` [Example 4, 1-[4-(Amidino)-2,3-dihydro-1H-inden-1-ylideneamino]-2-amino-4-(4-methoxvphenyl)-imidazole dihydrochloride], the values for the IC50 in series [1] and in series [3] were 3.6 nM and 2000 nM, respectively.
The like results for `COc1ccccc1-c1cn(N=C2CCc3c(C(=N)N)cccc32)c(N)n1` [Example 6, 1-[4-(Armidino)-2,3-dihydro-1H-inden-1-ylideneamino]-2-amino-4-(2-methoxyphenyl)-imidazole dihydrochloride] were, in that order, 8.4 nM and 1200 nM.
The matching figures for `COc1ccc(OC)c(-c2cn(N=C3CCc4c(C(=N)N)cccc43)c(N)n2)c1` [Example 8, 1-[4-(Amidino)-213-dihydro-1H-inden-1-ylideneamino]-2-amino-4-(2,5-di-methoxyphenyl)-imidazole dihydrochloride]: 8.9 nM and 1600 nM.
The matching figures for `COc1cccc(-c2cn(N=C3CCc4c(C(=N)N)cccc43)c(N)n2)c1` [Example 10, 1-[4-(Amidino)-2,3-dihydro-1 1H-inden-1-ylideneamino]-2-amino-4-(3-methoxyphenyl)-imidazole dihydrochloride]: 4.2 nM and 2600 nM.
As for `N=C(N)c1cccc2c1CCC2=Nn1cc(-c2ccc(Cl)cc2)nc1N` [Example 12, 1-[4-(Amidino)-2,3-dihydro-1H-inden-1-ylideneamino]-2-amino-4-(4-chlorophenyl)-imidazole dihydrochloride], the IC50 in series [1] worked out at 6.7 nM; in series [3], 1550 nM.
The like results for `Cc1ccc(-c2cn(N=C3CCc4c(C(=N)N)cccc43)c(N)n2)cc1` [Example 14, 1-[4-(Amidino)-2,3-dihydro-1H-inden-1-ylideneamino]-2-amino-4-(4-tolyl)-imidazole dihydrochloride] were, in that order, 3.4 nM and 1120 nM.
For the compound `N=C(N)c1cccc2c1CCC2=Nn1cc(-c2ccc(F)cc2)nc1N` [Example 16, 1-[4-(Amidino)-2,3-dihydro-1H-inden-1-ylideneamino]-2-amino-4-(4-fluoro-phenyl)-imidazole dihydrochloride], the half-inhibitory concentration (IC50) in series [1] stood at 4 nM; in series [3], 2700 nM.
The like results for `CCc1cn(N=C2CCc3c(C(=N)N)cccc32)c(N)n1` [Example 18, 1-[4-(Amidino)-2,3-dihydro-1H-inden-1-ylideneamino]-2-amino-4-ethyl-imidazole dihydrochloride] were, in that order, 6.1 nM and 1500 nM.
The matching figures for `N=C(N)c1cccc2c1CCC2=NN1CCN=C1N` [Example 20, 1-[4-(Amidino)-2,3-dihydro-1H-inden-1-ylideneamino]-2-amino-4,5-di-hydro-imidazole dihydrochloride]: 3.4 nM and 280 nM.
The like results for `N=C(N)c1cccc2c1CCC2=Nn1cc(-c2ccc(-c3ccccc3)cc2)nc1N` [Example 22, 1-[4-(Amidino)-2,3-dihydro-1H-inden-1-ylideneamino]-2-amino-4-(4-bi-phenylyl)-imidazole dihydrochloride] were, in that order, 11 nM and 440 nM.
Turning to `N=C(N)c1cccc2c1CCC2=Nn1cc(-c2ccc3ccccc3c2)nc1N` [Example 24, 1-[4-(Amidino)-2,3-dihydro-1H-inden-1-ylideneamino]-2-amino-4-(2-naphthyl)-imidazole dihydrochloride], the figures for the half-inhibitory concentration (IC50) in series [1] and in series [3] were 7.5 nM and 2460 nM, respectively.
As for `N=C(N)c1cccc2c1CCC2=Nn1ccnc1N` [Example 26, 1-[4-(Amidino)-2,3-dihydro-1H-inden-1-ylideneamino]-2-amino-imidazole dihydrochloride], the midpoint of inhibition in series [3], the IC50, lay at 2150 nM.
For the compound `CC(C)(C)c1ccc(-c2cn(N=C3CCc4c(C(=N)N)cccc43)c(N)n2)cc1` [Example 28, 1-[4-(Amidino)-2,3-dihydro-1H-inden-1-ylideneaminol-2-amino-4-(4-tert-butylphenyl)-imidazoledihydrochloride], the IC50 came out at 5.4 nM in series [1] and 230 nM in series [3].
